Data on 21 compounds can be found in US20230338340A1, “Methods of Treating Cystic Fibrosis” (The Trustees of Dartmouth College, priority 2020, published 2023).

Where two headings read alike, the source gives them in different places.

In the assay the target is T1, Human-Dab2-DH (Homo sapiens, UniProt P98082).
T1 construct: fused on or other part: N-terminal 10xHis tag with a 3C protease site, cleaved off unless otherwise indicated
T1 sequence (P98082 33-178 limits assumed): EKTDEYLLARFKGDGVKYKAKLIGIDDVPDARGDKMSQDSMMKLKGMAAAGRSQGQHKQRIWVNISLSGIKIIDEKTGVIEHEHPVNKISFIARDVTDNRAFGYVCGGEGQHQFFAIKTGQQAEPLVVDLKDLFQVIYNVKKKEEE
The assay can be described thus: Dab2 FP competition assay via HTS. Type of assay: binding. On the procedure:
CALP and/or Dab2 inhibition assays were performed in biochemical “mix-and-measure” format in order to evaluate the effects on activation and inhibition of CALP and/or Dab2 by the compounds of the disclosure. Brief assay procedure is provided below. Unless otherwise specified, all of the compounds were obtained from commercial sources.
Dab-2 inhibitors were also identified by FP competition assays via HTS. Human-Dab2-DH, residues 31-191 (Uniprot: P98082), and trDab2-DH (residues 33-178) was subcloned into the pET16b vector via PCR utilizing the restriction enzyme sites of Xhol and BamHI. The construct was designed with a 3C protease cleavage site directly upstream and in-frame with the protein coding sequence. DNA was sequence verified. (0.1 mM) IPTG was used to induce protein expression in E. coli BL21(DE3)RIL cells, after reaching an O.D. of […]. […] Followed by 3C cleavage of the 10×His tag (unless otherwise indicated), and a second nickel affinity column to remove the 3C protease and excess tag. Dab2-DH was dialyzed into FP storage buffer (25 mM Tris pH 8.0, 150 mM NaCl, 0.1 mM TCEP, and 0.02% sodium azide). Fluorescent reporter peptides, TIVR*STA02 (TMR*-[…]) and TMR*STA03 (TMR*-[…]), were purchased commercially with the following sequence where TMR* denotes a N-terminal tetramethylrhodamine group coupled via an aminohexanoic acid linker. An unlabled positive control peptide STA02 ([…]) was also purchased commercially. Inhibitors of Dab2-DH were identified from a variety of sources with various protocols outlined below.
For screens conducted at the Novartis Institutes for BioMedical Research FAST Lab, single-dose HTS assays were performed with libraries comprising ˜52,000 compounds at 20 μM doses. Experiments were conducted as described for screens at the University of Pittsburgh Lab and Drug Discovery Institute, except that Dab2-DH, not trDab2-DH, was used as the protein source.
For screens conducted at the Broad Institute, compound transfers were done using a 384-well pin tool equipped with 100 nL hydrophobic surface coated pins. 100 nL of DMSO (negative control), STA02 (positive control), or library compounds were dispensed into 20 μL of protein (200 nM) and reporter (F*-STA02, 30 nM) mixture with 0.1 mg/ml mouse IgG and 0.5 mM Thesit. Final concentrations in the mixture were DMSO ([…]), STA02 (20 μM), and compounds (18 μM). Plates were incubated for 35-45 minutes before measuring polarization. Compounds were tested in duplicates on two separate plates. Positive and negative controls were included in each individual plate.
For experiments conducted at the University of Pittsburgh Lab and Drug Discovery Institute, single-dose HTS assays were performed with a library containing ˜220,000 compounds. On the day of screening, a master mix of equal parts trDab2-DH (900 nM) and TMP-STA03 (90 nM) was prepared. Compound plates containing assay ready 2 μL aliquots of a 1 mM stock solution in DMSO were thawed, reconstituted in FP buffer to a concentration of 30 μM in 3% DMSO, and five μL transferred to low volume assay plates using a Perkin Elmer MDT. Ten μL of master mix were added by a Microflo bulk liquid dispenser (Biotek, Winooski, VT) and processed as described in the general protocol above. Each plate contained 32 wells of positive (Dab2-DH+probe+DMSO) and negative (Dab2-DH+probe +10 μM STA03) controls. Plates were read at 1.5-h and 4-h on the Envision multilabel reader.

[1] abbreviates: read-out: Inhibitory activity Dab2 IC50.

As to `O=C(/C=C/c1ccc(O)c(O)c1)OC(Cc1ccc(O)c(O)c1)C(=O)O` (stereo not drawn) [Example 25, (E)-3-(3,4-dihydroxyphenyl)-2-((3-(3,4-dihydroxyphenyl)acryloyl)oxy)propanoic acid], the half-inhibitory concentration (IC50) (as a rule, the concentration at which inhibition is half-maximal) under setting [1] amounted to 3.22 µM.
On to `COc1c(O)cc(C(C)C(C)=O)c(O)c1OC` (stereo not drawn) [Example 35, 3-(2,5-dihydroxy-3,4-dimethoxyphenyl)butan-2-one], for which the IC50 under setting [1] was found to be 1.17 µM.
Take `CN(C)[C@@H]1C(=O)C(C(N)=O)=C(O)[C@@]2(O)C(=O)C3=C(O)c4c(O)cccc4[C@@](C)(O)[C@H]3[C@H](O)[C@@H]12` [Example 30, (4S,4aR,5S,5aR,6S,12aR)-4-(dimethylamino)-1,5,6,10,11,12a-hexahydroxy-6-methyl-3,12-dioxo-3,4,4a,5,5a,6,12,12a-octahydrotetracene-2-carboxamide]: the 50% inhibitory concentration (IC50) was 6.02 µM.
Turning to `CC(C)c1cc2c(c(O)c1O)[C@@]13CCCC(C)(C)[C@@H]1C[C@@H]2OC3=O` [Example 31, (4aR,9S,10aS)-5,6-dihydroxy-7-isopropyl-1,1-dimethyl-1,3,4,9,10,10a-hexahydro-2H-9,4a-(epoxymethano)phenanthren-12-one], the half-maximal inhibitory concentration (IC50) under setting [1] was determined as 5.37 µM.
In turn, `COc1c(O)c2c(=O)cc(OC)c3c4c(OC)cc(=O)c5c(O)c(OC)c(CC(C)OC(=O)c6ccccc6)c(c(c1CC(C)OC(=O)Oc1ccc(O)cc1)c23)c54` (stereo not drawn) [Example 20, 1-(3,10-dihydroxy-12-(2-(((4-hydroxyphenoxy)carbonyl)oxy)propyl)-2,6,7,11-tetramethoxy-4,9-dioxo-4,9-dihydroperylen-1-yl)propan-2-yl benzoate] registered an IC50 of 0.51 µM.
For the compound `COC1=CC(=O)C(O)=C/C1=C\C=C\c1ccccc1` [Example 19, (E)-2-hydroxy-5-methoxy-4-((E)-3-phenylallylidene)cyclohexa-2,5-dien-1-one], under setting [1], the IC50 worked out at 7.73 µM.
For the compound `CC[N+](C)(CC)CCC[n+]1c(-c2ccccc2)c2cc(N)ccc2c2ccc(N)cc21` [Example 29, 3,8-diamino-5-(3-(diethyl(methyl)ammonio)propyl)-6-phenylphenanthridin-5-ium bromide], under setting [1], the concentration for half-maximal inhibition (IC50) was 9.41 µM.
For `Cc1occ2c1C(=O)c1c(O)ccc(O)c1C2` [Example 26, 5,8-dihydroxy-3-methylnaphtho[2,3-c]furan-4(9H)-one], under setting [1], the IC50 turned out to be 0.69 µM.
Same read-out and setting: next, `C=C1C(=O)OC2C(=O)OC(CCCCCCCCCC)C12` (stereo not drawn) [Example 32, 4-decyl-3-methylenedihydrofuro[3,4-b]furan-2,6(3H,4H)-dione]: 5.22 µM.
Still for that read-out and setting: next, `Cc1cc(O)c(Oc2cc(C)cc(O)c2O)c(O)c1` [Example 23, 3-(2,6-dihydroxy-4-methylphenoxy)-5-methylbenzene-1,2-diol]: 0.89 µM; `CC1=C(O)C(=O)C=C2C1=CC=C1[C@@]2(C)CC[C@@]2(C)[C@@H]3C[C@](C)(C(=O)O)CC[C@]3(C)CC[C@]12C` [Example 24, (2R,4aS,6aS,12bR,14aS,14bR)-10-hydroxy-2,4a,6a,9,12b,14a-hexamethyl-11-oxo-1,2,3,4,4a,5,6,6a,11,12b,13,14,14a,14b-tetradecahydropicene-2-carboxylic acid]: 0.66 µM; `CC1CCCCCCCCCC(OC(=O)CCC(=O)O)C(=O)/C=C/C(=O)O1` (stereo not drawn) [Example 27, (E)-4-((16-methyl-2,5-dioxooxacyclohexadec-3-en-6-yl)oxy)-4-oxobutanoic acid]: 3.85 µM.
Regarding `O=C1C=C(O)c2c(O)cc(O)cc2C1=O` [Example 17, 4,5,7-trihydroxynaphthalene-1,2-dione], the half-inhibitory concentration (IC50) under setting [1] was determined as 8.29 µM.
On to `CC1(C)Cc2ccccc2-c2n[nH]c(=S)n21` [Example 13, 5,5-dimethyl-5,6-dihydro-[1,2,4]triazolo[3,4-a]isoquinoline-3(2H)-thione], for which the “Inhibitory activity Dab2 at Cmax” value (at Cmax, cells printed with %) was approximately −95%.
Consider `COC(=O)C1=COC(OC2OC(CO)C(O)C(O)C2O)C2C(CO)=CCC12O` (stereo not drawn) [Example 28, methyl 4a-hydroxy-7-(hydroxymethyl)-1-((3,4,5-trihydroxy-6-(hydroxymethyl)tetrahydro-2H-pyran-2-yl)oxy)-1,4a,5,7a-tetrahydrocyclopenta[c]pyran-4-carboxylate], for which the half-inhibitory concentration (IC50) under setting [1] amounted to 0.39 µM.
`CC(=O)C1=C(O)[C@@]2(O)C(=O)c3c(c(C)c4ccc(C)c(O)c4c3O)C[C@H]2[C@@H](N)C1=O` [Example 18, (1R,4aR,12aS)-3-acetyl-1-amino-4,4a,6,7-tetrahydroxy-8,11-dimethyl-12,12a-dihydrotetracene-2,5(1H,4aH)-dione]: under setting [1], the IC50 turned out to be 8.86 µM.
In the case of `CC(C)c1cc2c(c(O)c1O)C13CCCC(C)(C)C1CC2OC3=O` (stereo not drawn) [Example 16, 5,6-dihydroxy-7-isopropyl-1,1-dimethyl-1,3,4,9,10,10a-hexahydro-2H-9,4a-(epoxymethano)phenanthren-12-one], the IC50 under setting [1] came to 6.89 µM.
Same read-out and setting: next, `COc1ccc(C(=O)C(=O)Nc2ccccc2)c(O)c1` [Example 21, 2-(2-hydroxy-4-methoxyphenyl)-2-oxo-N-phenylacetamide]: 0.94 µM; `Cc1cc(O)c(O)c(Oc2cc(C)cc(O)c2O)c1` [Example 22, 6,6′-oxybis(4-methylbenzene-1,2-diol)]: 0.77 µM; `O=C1c2c(O)c(Cl)cc3c2[C@@]2(Oc4ccc(O)c5c4[C@]3(O2)[C@@H]2O[C@@H]2C5=O)[C@@H]2O[C@H]12` [Example 34, (1aR,1bS,5aS,6aR,6bS,11aS)-3-chloro-4,10-dihydroxy-1a,5a,6a,11a-tetrahydro-5H,11H-1b,6b-epoxyoxireno[2′,3′:2,3]naphtho[1,8-bc]oxireno[2′,3′:2,3]naphtho[1,8-ef]oxepine-5,11-dione]: 2.99 µM.
Turning to `CC1OC2CC(=O)OC2C2=C1C(=O)c1c(O)cccc1C2=O` (stereo not drawn) [Example 33, 7-hydroxy-5-methyl-3,3a,5,11b-tetrahydro-2H-benzo[g]furo[3,2-c]isochromene-2,6,11-trione], the 50% inhibitory concentration (IC50) under setting [1] is 8.02 µM.
